From article PMC3996484, “Apoptosis Therapy in Cancer: The First Single-molecule Co-activating p53 and the Translocator Protein in Glioblastoma” (Scientific Reports, 2014)
Like-named read-outs stand apart in the source and are kept apart here.

Legend:
[1] = target: T1, native human MDM2/p53 complex (Homo sapiens, UniProt Q00987); experiment: ELISA-based dissociation of native MDM2/p53 complex in U87MG cell lysates; type: biochemical
T1 construct: U87MG cell lysates, containing the native MDM2/p53 complex; endogenous in cells; host or cells: U87MG human glioblastoma cells
Experimental: After extensive washes, levels of the MDM2/p53 complex were quantified using an antibody specific for p53, and subsequently an HRP-conjugated antibody and a TMB substrate kit. (C), (D) U87MG cell lysates, containing the native MDM2/p53 complex, were pre-incubated with DMSO (control) or different concentrations of the indicated compounds. Then, lysates were captured on wells pre-coated with MDM2 antibody. After extensive washes, levels of the MDM2/p53 complex were quantified using an antibody specific for p53, and subsequently an HRP-conjugated antibody and a TMB substrate kit. Blank wells were obtained in the absence of p53 antibody. Data are expressed as absorbance at 450 nm minus blank values (A), (B), or as % of control set to 100% (C), (D), and represent the mean ± SEM of at least three independent experiments.
To test the ability of new compound to dissociate the native MDM2/p53 complex, a quantitative sandwich immune-enzymatic assay, on crude cell lysates obtained from U87 MG cells was developed. […] The TMB substrate kit (Thermo Fisher Scientific) allowed a colorimetric quantification of the MDM2/p53 complex. […] Absorbance's values at 450 nm were measured, background subtracted and sigmoid dose-response curves were generated using Graph Pad Prism 4 software, from which IC50 values of MDM2/p53 complex were derived.

U87MG cells [2] = experiment: Annexin V and 7-AAD staining (apoptosis); type: cell-based, human
Experimental: Dual staining with Annexin V coniugated to fluorescein-isothiocyanate (FITC) and 7-amino-actinomysin (7-AAD) was performed using the commercially available kit (Muse Annexin V and Dead Cell Kit; Merck KGaA, Darmstadt, Germany). […] Both floating and adherent cells were collected, centrifuged at 300 × g for 5 minutes and suspended in cell culture medium. Then, a 100 μl aliquot of cell suspension (about 5 × 10^4 cell/ml) was added to 100 μl of fluorescent reagent and incubated for 10 minutes at room temperature. After incubation, the percentages of living, apoptotic and dead cells were acquired and analyzed by Muse™ Cell Analyzer in accordance to the manufacture's guidelines. In cells undergoing apoptosis, annexin V binds to phosphatidylserine, which translocates to the outer leaflet of the cytoplasmatic membrane. Double staining is used to distinguish between viable, early apoptotic, and necrotic or late apoptotic cells. Annexin V:FITC […] cells were identified as early apoptotic. Cells which were Annexin V-FITC positive and 7-AAD positive were identified as cells in late apoptosis or necrotic.

U87MG cells [3] = experiment: Cell viability, Trypan blue exclusion assay; type: cell-based, human
Experimental: Each experiment was performed in duplicate. […] Each experiment was performed in duplicate.
The effects of compound treatment on U87MG cell viability were evaluated by Trypan blue exclusion assays. Briefly harvested cells were mixed with an equal volume of 0.4% trypan blue dye. For quantization of cell viability, blue and bright cells were counted, and viability was calculated as the percentage of live (bright) cells versus control set to 100%. U87MG cells were treated with different concentrations (10 nM–10 μM) of each compound and after 24 h of incubation viable cells were counted.

U87MG cells [4] = experiment: Δψm dissipation in intact cells (JC-1, mitochondria isolated after cell treatment); conditions: for Δψm dissipation: 10 μM, 24 h of cell treatment; for Δψm dissipation vs control: intact cells, 5 μM, 24 h
TSPO = target: T2, TSPO (Rattus norvegicus, UniProt P16257); experiment: Competitive [3H]PK11195 radioligand binding assay; conditions: membrane homogenates from kidney, 0.6 nM [3H]PK11195; read-out: Ki, displacement of specific [3H]PK11195 binding
T2 construct: membranes homogenates obtained from kidney (20 μg of proteins) were incubated with 0.6 nM; from tissue; host or cells: kidney (crude mitochondrial membranes)
Experimental: (§1) Figure 3 New synthesized compounds bind to TSPO and induce Δψm collapse. (A) [^3H]PK11195 radioligand binding: membranes homogenates obtained from kidney (20 μg of proteins) were incubated with 0.6 nM [^3H]PK11195 and different compounds concentration. Reaching equilibrium, samples were filtered and bound radioactivity was counted. […] (B) Evaluation of Δψm in isolated mitochondria: Mitochondria (5 μg of proteins) were treated with compound 1 (5 μM), or compound 7 (5 μM), or DMSO (control) for 15 min. […] Each experiment was performed in duplicate.
Binding studies were performed as previously described. Briefly, crude mitochondrial membranes, in 50 mM Tris-HCl pH 7.4 buffer, were incubated with 0.6 nM [^3H]PK 11195 in the presence of new synthesized compounds (0.1 nM–10 μM) in a final volume of 0.5 ml for 90 min at 4°C. Incubations were terminated by rapid filtration through GF/C glass fiber filters and washed three times with 4 ml of cold buffer. The radioactivity was measured by liquid scintillation counter. Non-specific binding was estimated in the presence of unlabeled 1 μM PK 11195. IC50 value was determined using Graph-Pad Prism computer program (Graph Pad Software, version 5.0; San Diego, CA).

[5] = test system: mitochondria isolated from the human GBM cell line U87MG; experiment: Δψm dissipation in isolated mitochondria (JC-1); type: biochemical; conditions: isolated treated mitochondria, 5 μM, 15 min
Experimental: as §1
Several evidences have shown that TSPO is a constituent of the MPTP, taking therefore part in dissipation of Δψm that occurs after MPTP opening, as well as in the release of proapoptotic inter-membrane proteins and in the induction of apoptosis. To assess whether compounds 1 and 7 could modulate MPT-pore opening through their selective binding to TSPO, Δψm was measured in mitochondria isolated from the human GBM cell line U87MG.

[6] = test system: p53 protein levels in U87MG cells; experiment: p53 protein levels by Western blot; type: cell-based, human; conditions: 8 h incubation
Experimental: Figure 6 New synthesized compounds induce p53 protein accumulation by dissociation of MDM2/p53 complex and stimulate transcription of p53 target genes in U87MG cells. […] Lysates were subjected to Western blot analysis using antibody to p53 (FL-393; Santa Cruz Biotechnology). […] The MDM2/p53 complex and the relative input of the proteins were detected by immunoblot. One representative Western blot is presented (left panel). […] (D) Relative mRNA quantification of p53 target genes: The relative mRNA quantification of p53 target genes (p21 and MDM2) was performed by real-time RT-PCR as describe in Methods. […] Each experiment was performed in duplicate.
The western blot analysis for the evaluation of p53 protein levels was performed as previously described. […] 30 μg of each sample was then resolved by SDS-PAGE (8.5%), transferred to PVDF membranes and probed overnight at 4°C with primary antibody anti-p53 (FL-393; Santa Cruz Biotechnology; 1:500). The primary antibody was detected using anti-rabbit IgG light chains conjugated to peroxidase (diluted 1:10.000). The peroxidase was detected using a chemioluminescent substrate (ECL, Perkin Elmer). Densitometric analysis of immunoreactive bands was performed using Image J Software.

[7] = test system: p53 target genes (MDM2, p21, PUMA) in U87MG cells; experiment: Relative mRNA quantification of p53 target genes (real-time RT-PCR); type: cell-based, human; conditions: for mRNA levels of p53 target genes (MDM2 and p21): 5 μM
Experimental: The assessment of p53 target gene mRNA levels was performed by real-time reverse transcription polymerase chain reaction (real-time RT-PCR)[16]. In brief, total RNA was extracted from control cells as well as from cells treated with compounds (5 μM) for different hours, using Rneasy® Mini Kit (Qiagen, Hilden, Germany) according to manufacturer's instructions. Purity of the RNA samples was determined by measuring the absorbance at 260:280 nm. cDNA synthesis was performed with 500 ng of RNA using i-Script cDNA synthesis kit (BioRad, Hercules, USA) following manufacturer's instructions. […] RT-PCR reactions consisted of 25 μL Fluocycle® II SYBR® (Euroclone, Milano, Italy), 1.5 μL of both 10 μM forward and reverse primers, 3 μL cDNA, and 19 μL of H2O. All reactions were performed for 40 cycles using 55°C as annealing temperature. The p53 target gene mRNA levels for each sample were normalized against β-actin mRNA levels, and relative expression was calculated by using Ct value. PCR specificity was verified by both the melting curve analysis and gel electrophoresis.

U87MG cells [8] = experiment: Senescence marker SA-β-Gal; type: cell-based, human; conditions: 5 μM, 24 h
Text: The senescence marker SA-β-Gal was detected as previously described[16] and cells were then washed in PBS (1×) and photographed at 100× magnification. Images of random light microscopic fields were captured (5 fields per well), and both blue and total cells were counted using ImageJ (ImageJ Software, version 1.41; USA).

[9] = Precipitation in NMR sample; type: physicochemical; conditions: added from DMSO stock, 20 mM TrisHCl, 150 mM KCl, pH 7.4
Experimental: NMR spectra were acquired at 25°C on a Varian Unity INOVA 700 MHz spectrometer equipped with a cryoprobe. NMR samples contained 0.1 mM of proteins in 20 mM TrisHCl, 150 mM KCl, pH 7.4, 5 mM β-mercaptoethanol, 0.02% NaN3. Water suppression was carried out by gradient echo[39]. NMR data were processed using the Bruker program BioSpin 3.0. For NMR ligand binding experiments, 300 μL of the protein sample containing 10% D2O, at a concentration of about 0.1 mM, and a 10 mM stock solution of compounds 7 and 1 in DMSO-d6 were used. The formal final molar ratio protein:inhibitor was 1:2.

[10] = target: T3, recombinant human MDM2/p53 complex (Homo sapiens, UniProt Q00987); experiment: NMR dissociation (AIDA) of recombinant MDM2/p53 complex; type: binding; conditions: 0.2 mM formal final concentration, complex 0.1 mM
T3 construct: N-terminal region of MDM2 (residues 1–118); His-tag; made in house; host or cells: Escherichia coli BL21(DE3) RIL
T3 sequence (Q00987 1-118, one chain of several): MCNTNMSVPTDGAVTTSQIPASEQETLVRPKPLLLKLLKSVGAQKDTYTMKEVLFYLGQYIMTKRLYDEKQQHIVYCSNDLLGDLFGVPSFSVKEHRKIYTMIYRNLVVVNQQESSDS
Text: The method, named AIDA (for Antagonist Induced Dissociation Assay[26][27]), can work with complex made by a large protein fragment (larger than 30 kDa) and a small reporter protein (less than 20 kDa). AIDA makes use of two-dimensional^15N-HSQC spectra, however, in the presence of flexible protein residues, 1D proton NMR spectra may be sufficient for monitoring the states of the complex upon addition of ligands. Since the N-terminal domain of p53 is highly flexible, MDM2/p53 complex is suitable for 1D proton NMR application[26][28][29]. Particularly, the signals from ^NH^ε side chains of W23 and W53 are sharp in the free p53 1D proton spectrum. After the complex formation, W23 signal disappears, since W23 comprises the primary binding site for MDM2. In fact, residues 17–26 of p53 participate in well-defined structures of large MDM2/p53 complexes. In contrast, W53 is still not structured when p53 binds MDM2[26].
NMR spectra were acquired at 25°C on a Varian Unity INOVA 700 MHz spectrometer equipped with a cryoprobe. […] Water suppression was carried out by gradient echo[39]. NMR data were processed using the Bruker program BioSpin 3.0.

T1 sequence (Q00987 whole entry, one chain of several): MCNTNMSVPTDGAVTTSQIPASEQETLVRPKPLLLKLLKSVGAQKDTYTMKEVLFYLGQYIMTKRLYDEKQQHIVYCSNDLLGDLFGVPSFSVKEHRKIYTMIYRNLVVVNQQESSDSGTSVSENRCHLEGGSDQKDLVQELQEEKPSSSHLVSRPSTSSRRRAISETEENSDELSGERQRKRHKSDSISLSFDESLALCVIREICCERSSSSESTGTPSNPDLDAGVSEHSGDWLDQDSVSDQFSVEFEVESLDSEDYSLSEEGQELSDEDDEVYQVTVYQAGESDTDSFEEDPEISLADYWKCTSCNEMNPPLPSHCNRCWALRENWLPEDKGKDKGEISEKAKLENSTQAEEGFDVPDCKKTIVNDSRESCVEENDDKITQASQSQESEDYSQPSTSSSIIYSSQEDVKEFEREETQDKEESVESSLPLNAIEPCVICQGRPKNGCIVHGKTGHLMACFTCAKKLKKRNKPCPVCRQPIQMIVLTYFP

Structure (SMILES) | IC50 [1] [nM] | Δψm dissipation (U87MG cells [4]) | Ki (TSPO) [nM] | Δψm dissipation vs control [5] [%] | concentration at which p53 accumulation became significant [6] [µM] | mRNA levels of p53 target genes (MDM2 and p21) [7] | Δψm dissipation vs control (U87MG cells [4]) [%] | other results
O=C1[C@@H]2CS[C@@]3(C(=O)Nc4ccccc43)N2C(=O)N1Cc1ccc(Cl)cc1 [ISA27, reference compound] | 122 ± 14.5 | – | – | – | – | – | – | –
COc1ccc(C2=N[C@@H](c3ccc(Cl)cc3)[C@@H](c3ccc(Cl)cc3)N2C(=O)N2CCNC(=O)C2)c(OC(C)C)c1 [Nutlin-3, reference compound] | – | only a marginal effect | – | – | – | – | – | induction of specific apoptotic parameters (Annexin V, PUMA mRNA) (U87MG cells [2]; 10 μM, 24 h): did not show any induction; effect on U87MG cell viability (U87MG cells [3]; 24 h): dose-dependent reduction
CCC(C)N(C)C(=O)c1cc2ccccc2c(-c2ccccc2Cl)n1 (stereo not shown) [PK11195] | – | significant Δψm dissipation | – | – | – | – | – | inhibition of cell viability vs control (U87MG cells [3]; 100 μM, 24 h, maximal effect): 52.0 ± 2.3%; concentration from which inhibition of cell viability is significant (U87MG cells [3]; 24 h): 10 µM
CCOC(=O)[C@@H](Cc1ccccc1)NC(=O)[C@H](CC(C)C)NC(=O)C(=O)c1c(-c2ccccc2)[nH]c2ccccc12 [compound 1, (2-phenylindol-3-yl)glyoxyl-L-leucine-L-phenylalanine ethylester] | – | – | 438 ± 35 | 20.0 ± 1.8 | 5 | increase significantly | 47.0 ± 3.4 | increase of PUMA mRNA level ([7]; 16–24 h): approximately 4 fold; activity of the senescence marker β-galactosidase (U87MG cells [8]): no activity; phosphatidylserine externalization (early and late apoptosis) (U87MG cells [2]; 5 μM): significant phosphatidylserine externalization; IC50 (U87MG cells [3]; Homo sapiens, U-87 MG, 24 h, read-out: IC50, U87MG cell survival): 2500 ± 400 nM; actual concentration in MDM2/p53 NMR sample (sample precipitation) [9]: lower than 0.2 mM
CC(C)C[C@H](NC(=O)C(=O)c1c(-c2ccccc2)[nH]c2ccccc12)C(=O)N[C@H](Cc1ccccc1)C(=O)O [compound 7, (2-phenylindol-3-yl)glyoxyl-L-leucine-L-phenylalanine] | 202 ± 21.2 | – | 759 ± 56 | 43 ± 3.1 | 5 | increase significantly | 60.1 ± 3.2 | p53 release from MDM2/p53 complex (W23 peak appears) [10]: complete p53 release; IC50 (U87MG cells [3]; Homo sapiens, U-87 MG, 24 h; read-out: IC50, U87MG cell survival): 2900 ± 500 nM
